In patent US8309734B2 (Hoffmann-La Roche Inc., priority 2008, dated 2012):

Molecular target: T1, human GPBAR1 receptor (Homo sapiens, UniProt Q8TDU6)
T1 construct: expressed in transfected cells
T1 sequence (Q8TDU6 1-330): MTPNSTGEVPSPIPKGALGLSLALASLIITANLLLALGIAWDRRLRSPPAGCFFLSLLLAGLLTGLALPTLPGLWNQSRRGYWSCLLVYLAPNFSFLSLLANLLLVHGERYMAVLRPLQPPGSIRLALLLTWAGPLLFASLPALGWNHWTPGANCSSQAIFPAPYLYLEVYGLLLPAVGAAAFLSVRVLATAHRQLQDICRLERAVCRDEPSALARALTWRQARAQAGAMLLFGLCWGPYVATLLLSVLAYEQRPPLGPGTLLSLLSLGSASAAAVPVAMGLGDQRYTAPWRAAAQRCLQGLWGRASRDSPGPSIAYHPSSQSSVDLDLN
Assay: functional cAMP assay in CHO-dhfr(minus) cells expressing human GPBAR1 receptors
Format: cell-based
Details: cAMP increase (TR-FRET) in CHO-dhfr(minus) cells expressing human GPBAR1; compounds incubated 30 min at 30° C.

SMILES	EC50
O=C1CCCN(C(=O)c2cc(F)cnc2Oc2cc(Cl)ccc2Cl)c2ccccc21 [Example 82, 1-[2-(2,5-Dichloro-phenoxy)-5-fluoro-pyridine-3-carbonyl]-1,2,3,4-tetrahydro-benzo[b]azepin-5-one]	1270 nM
O=C(c1cc(F)cnc1Oc1cc(Cl)ccc1Cl)N1CCCc2ccccc21 [Example 83, [2-(2,5-Dichloro-phenoxy)-5-fluoro-pyridin-3-yl]-(3,4-dihydro-2H-quinolin-1-yl)-methanone]	13 nM
CCN(C(=O)c1cc(F)cnc1Oc1cc(Cl)ccc1Cl)c1ccccc1 [Example 84, 2-(2,5-Dichloro-phenoxy)-N-ethyl-5-fluoro-N-phenyl-nicotinamide]	686 nM
O=C(c1cc(F)cnc1Oc1cccc(Cl)c1)N1CCCc2cc(F)c(F)cc21 [Example 85, [2-(3-Chloro-phenoxy)-5-fluoro-pyridin-3-yl]-(6,7-difluoro-3,4-dihydro-2H-quinolin-1-yl)-methanone]	231 nM
O=C(c1cc(F)cnc1Oc1ccc(F)c(Cl)c1)N1CCCc2ccccc21 [Example 86, [2-(3-Chloro-4-fluoro-phenoxy)-5-fluoro-pyridin-3-yl]-(3,4-dihydro-2H-quinolin-1-yl)-methanone]	96 nM
O=C(c1cc(F)cnc1Oc1ccc(F)c(Cl)c1)N1CCCc2cc(F)c(F)cc21 [Example 87, [2-(3-Chloro-4-fluoro-phenoxy)-5-fluoro-pyridin-3-yl]-(6,7-difluoro-3,4-dihydro-2H-quinolin-1-yl)-methanone]	75 nM
Cc1cccc2c1N(C(=O)c1cc(F)cnc1Oc1ccc(F)c(Cl)c1)CCC2 [Example 88, [2-(3-Chloro-4-fluoro-phenoxy)-5-fluoro-pyridin-3-yl]-(8-methyl-3,4-dihydro-2H-quinolin-1-yl)-methanone]	950 nM
O=C(c1ccncc1Oc1cc(Cl)ccc1Cl)N1CCCc2ccccc21 [Example 89, [3-(2,5-Dichloro-phenoxy)-pyridin-4-yl]-(3,4-dihydro-2H-quinolin-1-yl)-methanone]	7 nM
O=C(c1ccncc1Oc1cc(Cl)ccc1Cl)N1CCCc2ccc(F)cc21 [Example 90, [3-(2,5-Dichloro-phenoxy)-pyridin-4-yl]-(7-fluoro-3,4-dihydro-2H-quinolin-1-yl)-methanone]	19 nM
O=C(c1ccncc1Oc1cc(Cl)ccc1Cl)N1CCCc2cc(F)ccc21 [Example 91, [3-(2,5-Dichloro-phenoxy)-pyridin-4-yl]-(6-fluoro-3,4-dihydro-2H-quinolin-1-yl)-methanone]	15 nM
O=C(c1ccncc1Oc1cc(Cl)ccc1Cl)N1CCCc2cc(F)cc(F)c21 [Example 92, [3-(2,5-Dichloro-phenoxy)-pyridin-4-yl]-(6,8-difluoro-3,4-dihydro-2H-quinolin-1-yl)-methanone]	7 nM
Cc1ccccc1N(C)C(=O)c1ccncc1Oc1cc(Cl)ccc1Cl [Example 93, 3-(2,5-Dichloro-phenoxy)-N-methyl-N-o-tolyl-isonicotinamide]	57 nM
CN(C(=O)c1ccncc1Oc1cc(Cl)ccc1Cl)c1ccccc1Cl [Example 94, N-(2-Chloro-phenyl)-3-(2,5-dichloro-phenoxy)-N-methyl-isonicotinamide]	157 nM
COc1ccccc1N(C)C(=O)c1ccncc1Oc1cc(Cl)ccc1Cl [Example 95, 3-(2,5-Dichloro-phenoxy)-N-(2-methoxy-phenyl)-N-methyl-isonicotinamide]	28 nM
O=C(c1ccncc1Oc1ccc(Cl)cc1Cl)N1CCCc2ccc(F)cc21 [Example 96, [3-(2,4-Dichloro-phenoxy)-pyridin-4-yl]-(7-fluoro-3,4-dihydro-2H-quinolin-1-yl)-methanone]	328 nM
O=C(c1ccncc1Oc1ccc(Cl)cc1Cl)N1CCCc2cc(F)cc(F)c21 [Example 98, [3-(2,4-Dichloro-phenoxy)-pyridin-4-yl]-(6,8-difluoro-3,4-dihydro-2H-quinolin-1-yl)-methanone]	217 nM
